These results are taken from patent US7763286B2, “Composition comprising an extract of Tiarella polyphylla and tiarellic acid isolated therefrom having antiinflammatory, antiallergic and antiasthmatic activity” (Korea Research Institute of Bioscience and Biotechnology, priority 2005, dated 2010).

Where two headings read alike, the source gives them in different places.

The test system of one data set is ICR rat. Description: Carageenan-induced rat-paw edema. It counts as in vivo. The note with it: for The thickness ratio of ankle (%) / inhibition at 50 mg/kg: 50 mg/kg; for inhibition at 50 mg/kg: Rattus norvegicus, paw edema. On the procedure: The inhibiting activity of the extract of T. polyphylla and […] prepared from the above Examples on the edema formation in ICR rat was determined as follows. The mice were divided into three groups consisting of 6 rats for each group, i.e., T1 treated with only solvent as a negative control group, T2 treated with 50 mg/kg of the extract of T. polyphylla, T3 treated with 50 mg/kg of aspirin respectively. 1 hour after the treatment, 1% […] solution was injected into inner rat ankle to induce edema and the thickness of ankle was measured by Vernier's caliper to determine the degree of the edema. The determined thickness was calculated by following Math Fig. 1. The thickness ratio of ankle(%)=[(maximum thickness of rat paw edema)-(the thickness of pre-treated rat paw edema)/(the thickness of pre-treated rat paw edema)]×100 MathFigure 1

In a further data set the test system is IL-13. Description: IL-13 level in BALF of OVA-induced asthmatic mice (ELISA). Conditions: 30 mg/ml; for IL-13: 48 hours after last challenge; for inhibition at 30000 µg/mL: Mus musculus, vs OVA-control. It counts as in vivo. The procedure: (§1) Groups of mice (n=5-6) were studied; they received the following treatment: (1) sham-sensitization plus challenge with phosphate-buffered saline (PBS; ipNeb); (2) sensitization plus challenge with OVA (ovalbumin: Sigma A5503; Sigma, St. Louis, Mo.) (ipNeb); (3) sensitization with OVA (ip) plus challenge with OVA (Neb) and samples (tiarellic acid or zileuton, po). Briefly, mice were sensitized with intraperitoneal injection of 20 μg OVA, which was emulsified with 2 mg of aluminum hydroxide in 100 μl of PBS buffer (pH 7.4) on days 0 and 11. The mice were challenged through the airways with OVA (1% in PBS) for 20 min using an ultrasonic nubuilizer (NE-U12; Omron Corp., Tokyo, Japan) on days 19, 20, 21 and 25 after the initial sensitization. The mice were sacrificed 48 hours after the last challenge (day 27) to determine the suppressive effect of extract of T. polyphylla and tiarellic acid on the airways of allergic asthma.
(§2) 48 hours after the last challenge, the mice were sacrificed with an overdose of pentobarbital (Sigma P3761), and a tracheotomy was performed. After ice-cold PBS (0.5 ml) was instilled into the lungs, bronchoalveolar lavage fluid (BALF) was obtained by aspiration three times (total 1.5 ml) via tracheal cannulation. BALF was centrifuged and supernatants were collected and stored at −70° C. before use. The amount of IL-4, IL-5 and IL-13 in BALF was measured by a specific mouse ELISA kit (R&D Systems; Minneapolis, Minn.) according to the manufacturer's instructions. The detection limit of the assays was 250 pg/ml.
(§3) To determine the effect of extract of T. polyphylla and tiarellic acid on the cytokine release in the OVA-induced asthmatic mice, 48 hours after the last challenge, the levels of cytokines (IL-4, IL-5 and IL-13) in BALF were measured by using ELISA method.

For another data set, the system named is IL-5. Description: IL-5 level in BALF of OVA-induced asthmatic mice (ELISA). The note with it: 30 mg/ml; for IL-5: 48 hours after last challenge; for inhibition at 30000 µg/mL: Mus musculus, vs OVA-control. The format is in vivo. On the procedure:
as §1, §2, §3
(In an ELISA, binding on a coated surface is turned into a signal by an enzyme label.)

The subject of another data set is OVA-specific IgE. Description: OVA-specific IgE in plasma of OVA-induced asthmatic mice (ELISA). It counts as in vivo. The note with it: Mus musculus, 48 hours after last challenge, 30 mg/ml, vs OVA-control. The procedure:
as §1, with “The mice were sacrificed 48 hours after the last challenge (day 27) to determine the suppressive effect of extract of T. polyphylla and tiarellic acid on the airways of allergic asthma.” left out
48 hours after the last challenge, the mice were sacrificed with an overdose of pentobarbital (Sigma P3761), and a tracheotomy was performed. […] The amount of IL-4, IL-5 and IL-13 in BALF was measured by a specific mouse ELISA kit (R&D Systems; Minneapolis, Minn.) according to the manufacturer's instructions. […]
Plasma was obtained by cardiac puncture after the tracheotomy. […] IgE levels in each sample were measured the optical density readings at 450 nm, and OVA-specific IgE concentrations were calculated from a standard curve, which was generated in case recombinant IgE (5-2,000 ng/ml) was used.

Another data set has as its system LTC4 release. Description: LTC4 release from SCF-stimulated bone marrow-derived mast cells (BMMC), enzyme immunoassay. It counts as cell-based, Balb/c mice. Conditions: Mus musculus, SCF 100 ng/ml stimulation, read-out: LTC4 release inhibition (IC50). On the procedure: BMMC were obtained from male Balb/c mice and cultured for up to 4 weeks in 50% enriched medium (RPMI containing 2 mM L-glutamine, 25 mM HEPES buffer, 2 mg/ml sodium bicarbonate, 100 units/ml penicillin G, 100 μg/ml streptomycin sulfate, 0.25 μg/ml amphotericin B) supplemented with 10% fetal bovine serum with IL-3 (Sigma I4144, 2 ng/ml) (Murakami M et al., J. Bio. Chem., 39, pp 22653-22656, 1995). 3 weeks after the culture, more than 98% of BMMC was found in the cells as assessed by staining method with toluidine blue.
BMMC were suspended in the enriched medium at the cell density of 1×10^6 cells/ml, and were then incubated in a humidified 5% CO2 incubator with or without sample in DMSO (final DMSO concentration was less than 0.5%) for 30 min at 37° C. After the stimulation with stem cell factor (SCF, Sigma S9915, 100 ng/ml) for 20 min, the LTC4 release in supernatants was measured by an enzyme immunoassay kit (Cayman Chemical, Ann Arbor, Mich., U.S.A.) according to the manufacturer's instructions. All the experiments were carried out in triplicate and the inhibition of LTC4 release was determined by calculating % reduction of LTC4 release from the control (Lee S H et al., Biol. Pharm. Bull., 27, pp 786-788, 2004). […]

The next data set concerns IL-4. Description: IL-4 level in BALF of OVA-induced asthmatic mice (ELISA). It counts as in vivo. The note with it: 30 mg/ml; for IL-4: 48 hours after last challenge; for inhibition at 30000 µg/mL: Mus musculus, vs OVA-control. On the procedure:
as §1, §2, §3

Data set [1] has as its system OVA-induced asthmatic mice. Description: Airway hyperresponsiveness (AHR), whole-body plethysmography, OVA-induced asthmatic mice. It counts as in vivo. The note with it: for Penh value: tiarellic acid and zileuton 30 mg/ml, po; for Penh value / AHR compared with OVA-treated group: OVA-challenged mice, in words. On the procedure: as §1, with “([…]” for “(tiarellic acid”, “tiarellic acid” left out, “asthma. 24 hours after the final aerosol challenge AHR was measured by using a whole-body plethysmography (OCP3000; Allmedicus, Korea)(Hamelmann E et al., Am J Respir Crit. Care Med., 156, pp 766-775, 1997). […] Bronchoconstriction was recorded for additional 5 mins at each concentration. The highest Penh value of each sample was obtained during each methacholine challenge, and expressed as a percentage of a basal Penh value in response to control (PBS) challenge.” for “asthma.”

The next data set deals with HL-60 cells. The note with it: human, 4 h.
Another data set concerns OVA-induced mice. Description: OVA-induced inflammation in lung tissue (H&E histology, inflammation score). The format is in vivo. The procedure:
Groups of mice (n=5-6) were studied; they received the following treatment: (1) sham-sensitization plus challenge with phosphate-buffered saline (PBS; ipNeb); (2) sensitization plus challenge with OVA (ovalbumin: Sigma A5503; Sigma, St. Louis, Mo.) (ipNeb); (3) sensitization with OVA (ip) plus challenge with OVA (Neb) and samples (tiarellic acid or zileuton, po). Briefly, mice were sensitized with intraperitoneal injection of 20 μg OVA, which was emulsified with 2 mg of aluminum hydroxide in 100 μl of PBS buffer (pH 7.4) on days 0 and 11. […]
The lung tissue was fixed for 24 hours on 10% neutral-buffered formalin. […] The degree of cell infiltration in the airway was scored in a double-blind test performed by two independent investigators (Myou S et al., J. Exp. Med., 198, pp 1573-1582, 2003). The peri-bronchiole and peri-vascular inflammation was evaluated by specific standard, i.e., scoring of 0-3, 0, no cells; 1, a few cells; 2, a ring of cells 1 to 5 cell-layer deep; 3, a thick ring of cells more than 5 cell-layer deep. To evaluate the suppressive effect of T. polyphylla extract and tiarellic acid on the leukocyte infiltration, the degree of inflammation was scored by quantitative analysis in lung tissues 48 hours after the last challenge (See FIG. 2).

Method for HL-60 cells: Promyelotic HL-60 cells (HL-18103, 5×10^5 cells/ml) were seeded on 96-well plates under NGF-free condition. […] 4 hours later, MTT was removed and 100 μl of DMSO was dropped into each well to dissolve crystals. UV absorbance was measured by microplate reader (BIO-RAD, U.S.A.) at 570 nm to calculate the cell viability.

Regarding `CC(=O)Oc1ccccc1C(=O)O` [aspirin], the “The thickness ratio of ankle (%)” value with ICR rat (1 hr) is reported as 139.3 ± 40.6%; in the data set on ICR rat (2 hr), 170.4 ± 34.5%; in the data set with ICR rat (3 hr), 180.6 ± 28.6%; in the data set with ICR rat (4 hr), 196.9 ± 15.4%; in the data set on ICR rat (5 hr), 198.5 ± 12.6%. For the same molecule, the inhibition (in general, the change of the read-out against control, counted positive when it falls) at 50 mg/kg is -16.8 ± 34% with ICR rat (1 hr); -7.8 ± 21.8% in the data set on ICR rat (2 hr); 7.3 ± 14.7% with ICR rat (3 hr); 4.3 ± 7.5% in the data set on ICR rat (4 hr); 1.5 ± 6.3% in the data set on ICR rat (5 hr).
Take `CC(c1cc2ccccc2s1)N(O)C(N)=O` (centres unmarked) [zileuton]: in the data set with IL-13, the “IL-13” value was found to be 130.1 ± 16.8 pg/mL. The inhibition at 30000 µg/mL in the data set with IL-13 was 10.3%; with IL-5, 12.5%; in the data set with OVA-specific IgE, 45.8%; in the data set with IL-4 it was 18.7%. Moreover, the “IL-5” value in the data set with IL-5 is 157.8 ± 41.3 pg/mL. Moreover, the IC50 (commonly the concentration that inhibits the measured activity by half) in the data set with LTC4 release was 110 nM. In addition, the “IL-4” value in the data set on IL-4 amounted to 289.5 ± 59.0 pg/mL. The Penh value in data set [1] (Metacholine 0 mg/ml) was 0.55 ± 0.14; in data set [1] (Metacholine 5 mg/ml), 1.17 ± 0.59; in data set [1] (Metacholine 10 mg/ml), 1.97 ± 0.83; in data set [1] (Metacholine 20 mg/ml) it was 2.49 ± 0.90. Moreover, the “Penh value / AHR compared with OVA-treated group” value in data set [1] was “showed a decrease of AHR but less than tiarellic acid”.
For the molecule `C=C(C)[C@@H]1CC[C@]2(C)CC[C@]3(C(=O)O)C(CCC4[C@@]5(C)CC[C@H](O)[C@@](C)(CO)C5CC[C@]43C)C12` (some centres unmarked) [Tiarellic acid, tiarellic acid], the “IL-13” value in the data set on IL-13 was 81.7 ± 40.9 pg/mL. Further, the inhibition at 30000 µg/mL with IL-13 is 43.7 ± 28.2%; in the data set on IL-5, 54.6 ± 23%; in the data set with OVA-specific IgE, 48.8%; in the data set with IL-4, 90.5 ± 4%. Besides, the “Cell viability (%)” value in the data set on HL-60 cells (50 μM) was found to be 100%; in the data set with HL-60 cells (100 μM), 102%. Besides, the “IL-5” value in the data set with IL-5 came to 81.9 ± 41.4 pg/mL. In the data set on LTC4 release, the IC50 was 2490 nM. Further, the “inhibition effect on rat paw edema” value with ICR rat (in words) was “potent inhibition effect”. The “infiltration of eosinophil-rich leukocytes” value with OVA-induced mice (H&E staining of lung tissues, compared with OVA-treated mice) is given as “significantly attenuated”. Moreover, the “suppressive effect on the inflammation in the lung tissues” value in the data set with OVA-induced mice (OVA-induced mice, 48 hours after last challenge) is reported as “most potent suppressive effect”. The “IL-4” value in the data set on IL-4 is 33.8 ± 14.3 pg/mL. The Penh value in data set [1] (Metacholine 0 mg/ml) turned out to be 0.46 ± 0.08; in data set [1] (Metacholine 5 mg/ml), 0.96 ± 0.45; in [1] (Metacholine 10 mg/ml) it was 1.54 ± 0.74; in [1] (Metacholine 20 mg/ml) it was 2.15 ± 0.52. Moreover, the “Penh value / AHR compared with OVA-treated group” value in data set [1] is on record as “significantly reduced”.
